Data on 3 compounds can be found in patent publication US20120088247A1, “MATERIALS AND METHODS FOR TREATING PATIENTS WITH TAXOXIFEN” (Indian University Research & Technology Corporatio, priority 2009, published 2012).

The half-life is how long it takes for the measured level to halve.

Data set [1] in a line: Plasma concentrations of tamoxifen and its metabolites (HPLC) in women with breast cancer taking tamoxifen, by UGT2B7 genotype and CYP2D6 score. From the text:
Patients. […] Subjects for the registry were recruited from the Breast Oncology Program at the University of Michigan Comprehensive Cancer Center and the Indiana University Cancer Center. […] Patients were enrolled after they had completed all primary surgery, radiation, and adjuvant chemotherapy. Specimens and data from this registry has been sed for several other studies, as reported previously,[16],[6],[17].
Study design. […] At the indicated time points, medical histories, including a comprehensive list of current medications, were obtained, and blood samples (5 mL) were drawn. […] Blood was collected in heparin tubes, and plasma was separated within 1 hour of blood collection by centrifugation at 2060×g. All samples (plasma and whole blood) were transferred to cryogenic vials (Corning, Cambridge, Mass.), shipped to the laboratory of the Division of Clinical Pharmacology, Indiana University, on dry ice, and stored at −80° C. until analysis.
UGT 2B7 genotyping. Genomic deoxyribonucleic acid (DNA) was extracted from the leukocyte portion of whole blood by use of a QJAamp DNA Blood Mini Kit (Qiagen, Valencia, Calif.) and used for genotyping of UGT2B7 variants. UGT2B7 codon 268 genotypes were determined by real-time PCR assays using the TaqMan Drug Metabolism Genotyping Assay C—32449742—20 (Applied Biosystems, Foster City, Calif.) in the ABI 7900HT sequence detection system equipped with an autoloader in the Functional Genomics Core Facility at the Penn State College of Medicine. […] The same primers were used for both PCR and sequencing: sense, 5′-[…]-3′ (SEQ ID. No. 3), located +642-+670 from the UGT2B7 translation start site); and antisense, 5′-[…]-3′ (SEQ. ID. No. 4), located +1555-+1597 from the UGT2B7 translation start site.
CYP2D6 genotyping. Genomic DNA was extracted from whole blood. CYP2D6 genotyping was conducted using two different genotyping methods: The AmpliChip CYP450 Test (Roche Diagnostics, Indianapolis, Ind.) and the Luminex CYP450C CYP2D6 assay (TM Biosciences). The AmpliChip was used for 129 of the DNA samples. It tests for 33 CYP2D6 alleles (ie, *1 to *10AB, *11, *14A, *14B, *15, *17, *19, *20, *25, *26, *29 to *31, *35, *36, *40, *41, *1N, *2xN, *4xN, *10xN, *17xN, *35xN, and *41xN). The remaining 60 samples were genotyped using the Luminex CYP450 Test. It tests for 16 CYP2D6 alleles (ie, *2 through *12, *14, *15, *17, and *41). The genotypes of approximately 10-20% of the samples were confirmed by running both assays or by using independent Taqman or restriction fragment length polymorphism (RFLP) assays.
CYP2D6 Gene Score. The CYP2D6 alleles were assigned a value that reflects the expected relative activity of the CYP2D6 enzyme for which they code. Accordingly, fully functional CYP2D6 alleles (e.g. *1, *2, *33, *35) were assigned a score of 1. CYP2D6 alleles associated with reduced enzyme activity (e.g. *9,*10, *17, *29, *37, *41, *45, *46) were scored as 0.5.
CYP2D6 Inhibition Factor and CYP2D6 Activity Score. After calculating the expected activity of the CYP2D6 enzyme according to the genotype, the possible effects of known CYP2D6 inhibitors on the performance of the CYP2D6 protein were incorporated. […] This rule defines the CYP2D6 inhibition factor. The CYP2D6 Activity Score is expressed as the product of multiplying the CYP2D6 Gene Score by the Inhibitor factor, which is defined in the following equation: activity score=(gene score×inhibition factor),
In presenting CYP2D6 activity score data, an extensive metabolizer (EM) was defined as an individual with an activity score greater than 2; a poor metabolizer (PM) was defined with an activity score less than 1; and an intermediate metabolizer (IM) as an individual who has a score between 1 and 2.

The conditions of data set [2]: literature refs [18],[19]; cited from earlier work.

On to `CC/C(=C(\c1ccccc1)c1ccc(OCCNC)cc1)c1ccccc1` [N-desmethyl-tamoxifen], for which the “Association of plasma concentration with UGT2B7 genotype” value in data set [1] (FIG. 1, P<0.05 considered significant) was “not significantly associated”. The “Mean plasma concentration, percent larger in the *2/*2 group” value in data set [1] (UGT2B7 *2/*2 group (FIG. 1A, 1D)) was 42%.

Regarding `CC/C(=C(\c1ccc(O)cc1)c1ccc(OCCNC)cc1)c1ccccc1` [endoxifen, 4-hydroxy-N-desmethyl-tamoxifen], in data set [1] (female, human, in vivo), the “Increase in concentration due to gene-gene interaction” value worked out at 220%; the “Increase in endoxifen concentration” value is on record as 58%; the “Mean plasma endoxifen concentration, percent higher in UGT2B7*2/*2 group than in each of *1/*2 and *1/*1 groups” value was 34%; the “Range of mean plasma endoxifen concentration by compound UGT2B7 genotype and CYP2D6 score” value lay in the range of 12 to 100 nM. The “Range of mean plasma endoxifen concentration over combined UGT2B7 genotype and CYP2D6 score groups” value in data set [1] (female, human, in vivo) fell in the range of 19 to 107 nM. In data set [1] (in vivo), the “Association of plasma concentration with UGT2B7 genotype” value is “significant”.

As for `CC/C(=C(\c1ccccc1)c1ccc(OCCN(C)C)cc1)c1ccccc1` [tamoxifen, Tamoxifen], the half-life in data set [2] was 120 to 170 h.
